Like-named read-outs stand apart in the source and are kept apart here.
Key:
TYK2 JH2 = molecular target: T1, TYK2 JH2 (Homo sapiens, UniProt P29597); assay: TYK2 JH2 binding assay (KINOMEscan KdELECT competitive binding); conditions: TYK2 JH2 domain
T1 construct: purchased DiscoverX (KINOMEscan KdELECT service); host or cells: E. coli BL21-derived (T7 phage display) or HEK-293
Outline: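 Test compounds were titrated in 11 three-fold steps against JH2 fragment captured on ligand-loaded magnetic beads, with 1 h incubation at room temperature and DMSO at 0.9%. Eluted kinase was quantified by qPCR, and Kd was fitted from the dose series.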

[1] = test system: JAK1/TYK2 pSTAT5 (Tyr694/699) in THP-1 cell line; assay: IFNa-stimulated JAK1/TYK2 pSTAT5 (Tyr694/699) inhibition cellular assay, AlphaLISA; assay type: cell-based; conditions: Homo sapiens, THP-1 cells, AlphaLISA (Assay B)
Outline: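 THP-1 cells (2e4/well) in HBSS preincubated 1 h at 37° C. with compound (final 10000–0.04 nM, 8 points, 6-fold), then stimulated with IFNa (100 ng/mL stock) for 30 min before lysis. pSTAT5 (Tyr694/699) read by AlphaLISA at 615 nm; IC50 from four-parameter logistic fit with bottom fixed at 0 and Hill slope at −1.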

[2] = KINOMEscan KdELECT (Assay A), read-out: Biochemical TYK2_DiscoverX_JH2_BND_Kd
[3] = IFNa-stimulated, read-out: Cellular_THP1_IFNa-pSTATS_TYK2
[4] = DiscoverX KINOMEscan KdELECT (Assay A), read-out: Biochemical TYK2_DiscoverX_JH2_BND_Kd
[5] = IFNa-stimulated pSTAT5 (Tyr694/699), read-out: Cellular_THP1_IFNa-pSTATS_TYK2
[6] = KINOMEscan KdELECT (Assay A), read-out: Biochemical TYK2_JH2_Kd
[7] = IFNa-stimulated, read-out: Cellular THP1_IFNa-pSTATS_IC50

T1 sequence (P29597 589-875 limits assumed): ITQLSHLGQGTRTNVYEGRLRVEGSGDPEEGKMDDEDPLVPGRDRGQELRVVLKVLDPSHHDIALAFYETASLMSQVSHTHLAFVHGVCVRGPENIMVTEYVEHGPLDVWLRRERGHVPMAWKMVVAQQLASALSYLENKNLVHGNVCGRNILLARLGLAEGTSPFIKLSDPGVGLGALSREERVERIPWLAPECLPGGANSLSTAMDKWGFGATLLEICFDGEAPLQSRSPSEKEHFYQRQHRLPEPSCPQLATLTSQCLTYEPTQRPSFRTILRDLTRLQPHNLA

Kd (TYK2 JH2; [2])	IC50 [1, 3]	Kd (TYK2 JH2; [4])	Compound	other results
≤ 100 nM	≤ 500 nM	–	CNc1ncc(-c2nc3cnc(C)cc3o2)c2cc(NC(=O)C3CC3)ncc12 [Example 928, N-(8-(methylamino)-5-(6-methyloxazolo[4,5-c]pyridin-2-yl)-2,7-naphthyridin-3-yl)cyclopropanecarboxamide]	–
≤ 100 nM	≤ 500 nM	–	CNc1ncc(/C=C/c2ccc3c(c2)OC[C@H](COC)O3)c2cc(NC(=O)C3CC3)ncc12 (single isomer, unassigned) [Example 790]	–
–	≤ 500 nM	≤ 100 nM	CNc1ncc(-c2nc3cc(N4CC5(CN(C)C5)C4)ccc3o2)c2cc(NC(=O)C3CC3)ncc12 [Example 300, N-(5-(5-(6-methyl-2,6-diazaspiro[3.3]heptan-2-yl)benzo[d]oxazol-2-yl)-8-(methylamino)-2,7-naphthyridin-3-yl)cyclopropanecarboxamide]	–
≤ 100 nM	≤ 500 nM	–	CNc1ncc(C#Cc2ccncc2CCO)c2cc(NC(=O)C3CC3)ncc12 [Example 724, N-(5-((3-(2-hydroxyethyl)pyridin-4-yl)ethynyl)-8-(methylamino)-2,7-naphthyridin-3-yl)cyclopropanecarboxamide]	–
–	≤ 500 nM	≤ 100 nM	CNc1ncc(-c2nc3cc(N4CC5COCC(C5)C4)ccc3o2)c2cc(NC(=O)C3CC3)ncc12 [Example 285, N-(5-(5-(3-oxa~7-azabicyclo[3.3.1]nonan-7-yl)benzo[d]oxazol-2-yl)-8-(methylamino)-2,7-naphthyridin-3-yl)cyclopropanecarboxamide]	–
–	≤ 500 nM	≤ 100 nM	CNc1ncc(-c2nc3cc(OCC[S+](C)[O-])ccc3o2)c2cc(NC(=O)C3CC3)ncc12 (stereo not drawn) [Example 353, N-(8-(methylamino)-5-(5-(2-(methylsulfinyl)ethoxy)benzo[d]oxazol-2-yl)-2,7-naphthyridin-3-yl)cyclopropanecarboxamide]	–
–	≤ 500 nM	≤ 100 nM	CNc1ncc(-c2nc3cc(OC4CN(C)C4)ccc3o2)c2cc(NC(=O)C3CC3)ncc12 [Example 198, N-(8-(methylamino)-5-(5-((1-methylazetidin-3-yl)oxy)benzo[d]oxazol-2-yl)-2,7-naphthyridin-3-yl)cyclopropanecarboxamide]	–
–	≤ 500 nM	≤ 100 nM	CNc1ncc(-c2nc3cc(OC)ccc3o2)c2cc(NC(=O)[C@@H]3C[C@H]3C#N)ncc12 (racemic) [Example 385, 2-cyano-N-(5-(5-methoxybenzo[d]oxazol-2-y1)-8-(methylamino)-2,7-naphthyridin-3-yl)cyclopropane-1-carboxamide]	–
–	≤ 500 nM	≤ 100 nM	CNc1ncc(-c2nc3cc(OC)ccc3o2)c2cc(NC(=O)[C@@H]3C[C@@H]3CF)ncc12 (single isomer, unassigned) [Example 400]	–
≤ 100 nM	≤ 500 nM	–	CNc1ncc(-c2nc3cc(N4CCO[C@H](COC)C4)ccc3o2)c2cc(NC(=O)C3CC3)ncc12 (single isomer, unassigned) [Example 919]	–
≤ 100 nM	–	–	CNc1ncc(C#Cc2ccc3c(c2)OCO3)c2cc(NC(=O)C3CC3)ncc12 [Example 997, N-[5-[2-(1,3-benzodioxol-5-yl)ethynyl]-8-(methylamino)-2,7-naphthyridin-3-yl]cyclopropanecarboxamide]	IC50 [1, 5]: ≤ 500 nM
≤ 100 nM	–	–	CNc1ncc(-c2cc3ccncc3o2)c2cc(Nc3cccc(OCCCCO)n3)ncc12 [Example 1103, 4-((6-((5-(furo[2,3-c]pyridin-2-yl)-8-(methylamino)-2,7-naphthyridin-3-yl)amino)pyridin-2-yl)oxy)butan-1-ol]	IC50 [1, 5]: ≤ 500 nM
–	≤ 500 nM	≤ 100 nM	CCNc1ncc(-c2nc3ccc(N4CCOCC4)cn3n2)c2cc(NC(=O)[C@H]3C[C@H]3C)ncc12 [Example 579, (1S,2R)—N-(8-(ethylamino)-5-(6-morpholino-[1,2,4]triazolo[1,5-a]pyridin-2-yl)-2,7-naphthyridin-3-yl)-2-methylcyclopropane-1-carboxamide]	–
≤ 100 nM	≤ 500 nM	–	CNc1ncc(C#Cc2ccc3c(c2)OC[C@H](COC)O3)c2cc(NC(=O)C3CC3)ncc12 (single isomer, unassigned) [Example 698]	–
–	≤ 500 nM	≤ 100 nM	CNc1ncc(-c2nc3cc(CS(C)(=O)=O)ccc3o2)c2cc(NC(=O)C3CC3)ncc12 [Example 257, N-(8-(methylamino)-5-(5-((methylsulfonyl)methyl)benzo[d]oxazol-2-yl)-2,7-naphthyridin-3-yl)cyclopropanecarboxamide]	–
–	≤ 500 nM	≤ 100 nM	CNc1ncc(-c2nc3cc(N4CCOC[C@H]4C)ccc3o2)c2cc(NC(=O)C3CC3)ncc12 [Example 309, (R)-N-(8-(methylamino)-5-(5-(3-methylmorpholino)benzo[d]oxazol-2-yl)-2,7-naphthyridin-3-yl)cyclopropanecarboxamide]	–
≤ 100 nM	≤ 500 nM	–	CNc1ncc(C#Cc2ccc(OC)cc2)c2cc(NC(=O)[C@H]3C[C@H]3C)ncc12 [Example 753, (1S,2R)—N-(5-((4-methoxyphenyl)ethynyl)-8-(methylamino)-2,7-naphthyridin-3-yl)-2-methylcyclopropane-1-carboxamide]	–
–	–	–	CNc1ncc(-c2ccccc2)c2cc(NC(=O)C3(C)CC3)ncc12 [Example 101, 1-methyl-N-(8-(methylamino)-5-phenyl-2,7-naphthyridin-3-yl)cyclopropane-1-carboxamide]	Kd (TYK2 JH2; [6]): ≤ 100 nM; IC50 [1, 7]: > 500 nM
–	> 500 nM	≤ 100 nM	CNc1ncc(-c2nc3cc(OC)ccc3o2)c2cc(NC(=O)C3(F)CC3)ncc12 [Example 381, 1-fluoro-N-(5-(5-methoxybenzo[d]oxazol-2-yl)-8-(methylamino)-2,7-naphthyridin-3-yl)cyclopropane-1-carboxamide]	–
≤ 100 nM	> 500 nM	–	CNc1ncc(-c2nc(-c3ncnn3C)co2)c2cc(NC(=O)C3CC3)ncc12 [Example 831, N-(5-(4-(1-methyl-1H-1,2,4-triazol-5-yl)oxazol-2-yl)-8-(methylamino)-2,7-naphthyridin-3-yl)cyclopropanecarboxamide]	–
–	≤ 500 nM	≤ 100 nM	[2H]C([2H])([2H])Nc1ncc(-c2nc3ccc(OC)cn3n2)c2cc(NC(=O)C3CC3)ncc12 [Example 511, N-(5-(6-methoxy-[1,2,4]triazolo[1,5-a]pyridin-2-yl)-8-((methyl-d3)amino)-2,7-naphthyridin-3-yl)cyclopropanecarboxamide]	–
–	≤ 500 nM	≤ 100 nM	CNc1ncc(-c2nc3ccc(N4CCO[C@@H](C)C4)cn3n2)c2cc(NC(=O)[C@H]3C[C@H]3C)ncc12 [Example 539, (1S,2R)-2-methyl-N-(8-(methylamino)-5-(6-((S)-2-methylmorpholino)-[1,2,4]triazolo[1,5-a]pyridin-2-yl)-2,7-naphthyridin-3-yl)cyclopropane-1-carboxamide]	–
–	≤ 500 nM	≤ 100 nM	CNc1ncc(-c2nc3ccc(N4CC(F)C4)cn3n2)c2cc(NC(=O)C3CC3)ncc12 [Example 473, N-(5-(6-(3-fluoroazetidin-1-yl)-[1,2,4]triazolo[1,5-a]pyridin-2-yl)-8-(methylamino)-2,7-naphthyridin-3-yl)cyclopropanecarboxamide]	–
≤ 100 nM	≤ 500 nM	–	CNc1ncc(-c2nc3c(o2)CCCC3)c2cc(NC(=O)C3CC3)ncc12 [Example 843, N-(8-(methylamino)-5-(4,5,6,7-tetrahydrobenzo[d]oxazol-2-yl)-2,7-naphthyridin-3-yl)cyclopropanecarboxamide]	–
≤ 100 nM	≤ 500 nM	–	CNc1ncc(C#Cc2ccc(OC)cn2)c2cc(NC(=O)C3CC3)nnc12 [Example 884, N-(5-((5-methoxypyridin-2-yl)ethynyl)-8-(methylamino)pyrido[3,4-c]pyridazin-3-yl)cyclopropanecarboxamide]	–
–	≤ 500 nM	≤ 100 nM	CNc1ncc(-c2nc3cc(N4CCO[C@@H](C)C4)ccc3o2)c2cc(NC(=O)[C@H]3C[C@H]3C(F)F)ncc12 (single isomer, unassigned) [Example 414]	–
≤ 100 nM	–	–	CNc1ncc(-c2cc3cc(OC)ccc3o2)c2cc(NC(=O)C3CC3)ncc12 [Example 1054]	IC50 [1, 5]: ≤ 500 nM
≤ 100 nM	≤ 500 nM	–	CNc1ncc(C#Cc2ccc(C(C)(F)F)cn2)c2cc(NC(=O)C3CC3)ncc12 [Example 729, N-(5-((5-(1,1-difluoroethyl)pyridin-2-yl)ethynyl)-8-(methylamino)-2,7-naphthyridin-3-yl)cyclopropanecarboxamide]	–
–	≤ 500 nM	≤ 100 nM	CNc1ncc(-c2nc3ccc(OC)cn3n2)c2cc(Nc3ccccn3)ncc12 [Example 523, 4-(6-methoxy-[1,2,4]triazolo[1,5-a]pyridin-2-yl)-N^1-methyl-N^6-(pyridin-2-yl)-2,7-naphthyridine-1,6-diamine]	–
–	–	–	CNc1ncc(C2CC2)c2cc(NC(=O)C3CC3)ncc12 [Example 28, N-(5-cyclopropyl-8-(methylamino)-2,7-naphthyridin-3-yl)cyclopropanecarboxamide]	Kd (TYK2 JH2; [6]): ≤ 100 nM; IC50 [1, 7]: > 500 nM
